Measurements as given in ChEMBL document CHEMBL1155301, “Optimization of the aminopyridopyrazinones class of PDE5 inhibitors: discovery of 3-[(trans-4-hydroxycyclohexyl)amino]-7-(6-methoxypyridin-3-yl)-1-(2-propoxyethyl)pyrido[3,4-b]pyrazin-2(1H)-one” (Bioorg Med Chem Lett, 2009).
Where “and” joins values, the source holds several entries; their conditions need not be identical. Equal entries are not always repeated. Calls of active or inactive are those of the source. No cut-off for these calls is given here.

Assays:
[1] = molecular target: Rod cGMP-specific 3',5'-cyclic phosphodiesterase subunit alpha (Homo sapiens, UniProt P16499); experiment: Inhibition of PDE6
Rod cGMP-specific 3',5'-cyclic phosphodiesterase subunit alpha, sequence (P16499 whole entry): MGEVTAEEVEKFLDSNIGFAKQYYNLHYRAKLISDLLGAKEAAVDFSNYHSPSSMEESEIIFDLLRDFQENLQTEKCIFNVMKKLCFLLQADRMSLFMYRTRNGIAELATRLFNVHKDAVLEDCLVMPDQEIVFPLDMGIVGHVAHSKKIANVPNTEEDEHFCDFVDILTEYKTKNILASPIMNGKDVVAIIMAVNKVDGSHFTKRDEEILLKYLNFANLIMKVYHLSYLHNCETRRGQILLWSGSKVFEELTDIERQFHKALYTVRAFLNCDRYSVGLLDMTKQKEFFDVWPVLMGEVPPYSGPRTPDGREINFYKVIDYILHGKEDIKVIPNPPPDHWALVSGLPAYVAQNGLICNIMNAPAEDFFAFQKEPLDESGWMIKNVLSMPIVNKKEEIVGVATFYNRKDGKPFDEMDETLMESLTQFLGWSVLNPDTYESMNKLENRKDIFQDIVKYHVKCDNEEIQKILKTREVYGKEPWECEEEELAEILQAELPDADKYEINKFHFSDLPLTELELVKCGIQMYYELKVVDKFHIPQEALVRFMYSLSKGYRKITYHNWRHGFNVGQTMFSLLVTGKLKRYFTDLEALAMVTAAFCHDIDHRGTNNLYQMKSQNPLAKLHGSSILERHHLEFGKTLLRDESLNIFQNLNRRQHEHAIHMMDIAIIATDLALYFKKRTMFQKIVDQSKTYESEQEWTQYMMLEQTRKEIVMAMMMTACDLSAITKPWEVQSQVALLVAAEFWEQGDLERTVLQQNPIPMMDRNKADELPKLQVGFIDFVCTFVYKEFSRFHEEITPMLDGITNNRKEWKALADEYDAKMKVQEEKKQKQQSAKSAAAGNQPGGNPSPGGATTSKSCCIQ

[2] = molecular target: cGMP-specific 3',5'-cyclic phosphodiesterase (Homo sapiens, UniProt O76074); experiment: Inhibition of PDE5
Rattus norvegicus [3] = experiment: Antihypertensive activity against telemeterized rat at 10 mg/kg, po; type: functional, organism-based; parameters: dose 10 mg/kg
[4] = Clearance in rat at 2 mg/kg, po and 2 mg/kg, iv; type: ADME, organism-based; conditions: in vivo
[5] = Selectivity ratio of IC50 for PDE5 to IC50 for PDE6
[6] = Volume of distribution in dog at 2 mg/kg, iv and 2 mg/kg, po; type: ADME, organism-based, Canis lupus familiaris; conditions: in vivo
[7] = Clearance in dog at 2 mg/kg, po and 2 mg/kg, iv; type: ADME, organism-based, Canis lupus familiaris; conditions: in vivo
[8] = Oral bioavailability in dog at 2 mg/kg; type: ADME, organism-based, Canis lupus familiaris; conditions: in vivo
[9] = Oral bioavailability in rat at 2 mg/kg; type: ADME, organism-based; conditions: in vivo
[10] = Volume of distribution in rat at 2 mg/kg, iv and 2 mg/kg, po; type: ADME, organism-based; conditions: in vivo
[11] = Half life in dog at 2 mg/kg, po and 2 mg/kg, iv; type: ADME, organism-based, Canis lupus familiaris; conditions: in vivo
[12] = Half life in rat at 2 mg/kg, po and 2 mg/kg, iv; type: ADME, organism-based; conditions: in vivo
Rattus norvegicus [13] = organism: Rattus norvegicus; experiment: Unbound volume of distribution in rat; type: ADME, organism-based; conditions: in vivo
Rattus norvegicus [14] = organism: Rattus norvegicus; experiment: Unbound clearance in rat; type: ADME, organism-based; conditions: in vivo
[15] = Half life in rat; type: ADME, organism-based; conditions: in vivo

| IC50 [1] [nM] | IC50 [2] [nM] | clearance [4] [mL/min/kg] | Compound | further results |
| --- | --- | --- | --- | --- |
| 49.7 | 0.54 |  | CCCOCCn1c(=O)c(NC[C@@H](C)O)nc2ncc(-c3ccc(OC)nc3)cc21 |  |
| 98.9 | 0.38 |  | CCCOCCn1c(=O)c(NCC(=O)N2CCN(CC)CC2)nc2ncc(-c3ccc(OC)nc3)cc21 |  |
| 68.2 | 0.55 |  | CCCOCCn1c(=O)c(N[C@@H](C)CO)nc2ncc(-c3ccc(OC)nc3)cc21 |  |
| 114 | 1.17 |  | CCCOCCn1c(=O)c(NCCO)nc2ncc(-c3ccc(OC)nc3)cc21 | Activity (Rattus norvegicus [3]): Active; Ratio IC50 [5]: 97 |
| 576 | 2.95 |  | CCCOCCn1c(=O)c(NCC(=O)O)nc2ncc(-c3ccc(OC)nc3)cc21 |  |
| 80.2 | 0.32 |  | CCCOCCn1c(=O)c(NCC(=O)N2CCN(C)CC2)nc2ncc(-c3ccc(OC)nc3)cc21 |  |
| 398 | 2.59 |  | CCCOCCn1c(=O)c(NCC(N)=O)nc2ncc(-c3ccc(OC)nc3)cc21 |  |
| 115 | 0.43 | 19.5 | CCCOCCn1c(=O)c(NCC(=O)NC)nc2ncc(-c3ccc(OC)nc3)cc21 | Vd [6]: 1.3 L/kg; clearance [7]: 8.8 mL/min/kg; bioavailability [8]: 52%; bioavailability [9]: 39%; Vd [10]: 1 L/kg; half-life [11]: 2.4 h; half-life [12]: 0.8 h |
| 34.5 | 0.36 |  | CCCOCCn1c(=O)c(NCc2ccccn2)nc2ncc(-c3ccc(OC)nc3)cc21 |  |
| 51.8 | 0.34 |  | CCCOCCn1c(=O)c(NC[C@H](C)O)nc2ncc(-c3ccc(OC)nc3)cc21 |  |
| 57.4 | 0.17 |  | CCCOCCn1c(=O)c(NCCOCC)nc2ncc(-c3ccc(OC)nc3)cc21 | Activity (Rattus norvegicus [3]): inactive |
| 398 | 2.59 | 33 | CCCOCCn1c(=O)c(NCC(=O)N(C)C)nc2ncc(-c3ccc(OC)nc3)cc21 | Vd [6]: 1.2 L/kg; clearance [7]: 9.4 mL/min/kg; bioavailability [8]: 32%; bioavailability [9]: 46%; Activity (Rattus norvegicus [3]): Active; Vd [10]: 1.1 L/kg; half-life [11]: 2.1 h; half-life [12]: 0.6 h |
| 1590 | 4 |  | CCCOCCn1c(=O)c(NCCN(C)C)nc2ncc(-c3ccc(OC)nc3)cc21 |  |
| > 2000 | 16.3 |  | CCCOCCn1c(=O)c(NCCN)nc2ncc(-c3ccc(OC)nc3)cc21 |  |
| 31.4 | 0.14 | 30 | CCCOCCn1c(=O)c(NCC2CCOCC2)nc2ncc(-c3ccc(OC)nc3)cc21 | bioavailability [9]: 15%; Activity (Rattus norvegicus [3]): Active |
| 63.2 | 0.88 |  | CCCOCCn1c(=O)c(N[C@H](C)CO)nc2ncc(-c3ccc(OC)nc3)cc21 |  |
| 45.5 | 1.05 |  | CCCOCCn1c(=O)c(NCC(=O)O)nc2cnc(-c3ccc(OC)nc3)cc21 | Activity (Rattus norvegicus [3]): inactive; Ratio IC50 [5]: 43 and 30 |
| 124 | 0.71 |  | CCCOCCn1c(=O)c(NCCCO)nc2ncc(-c3ccc(OC)nc3)cc21 |  |
| 114 | 1.17 | 18 | CCCOCCn1c(=O)c(NCC(=O)N2CCOCC2)nc2ncc(-c3ccc(OC)nc3)cc21 | Vd [6]: 0.9 L/kg; clearance [7]: 16.7 mL/min/kg; bioavailability [8]: 32%; bioavailability [9]: 51%; Vd [10]: 0.8 L/kg; half-life [11]: 0.9 h; half-life [12]: 0.8 h |
| 23.6 | 0.28 |  | CCCOCCn1c(=O)c(NCc2cnccn2)nc2ncc(-c3ccc(OC)nc3)cc21 | Activity (Rattus norvegicus [3]): Active |
| 86.6 | 0.68 |  | CCCOCCn1c(=O)c(NCC(N)=O)nc2cnc(-c3ccc(OC)nc3)cc21 |  |
| 61.8 |  |  | CCCOCCn1c(=O)c(NCCN2CCOCC2)nc2ncc(-c3ccc(OC)nc3)cc21 | half-life [15]: 1.8 h |

Further lines, the compound ahead of its results:

| Compound | IC50 [1] [nM] | IC50 [2] [nM] | clearance [4] [mL/min/kg] | further results |
| --- | --- | --- | --- | --- |
| CCCOCCn1c(=O)c(NCC2CCCO2)nc2cnc(-c3ccc(OC)nc3)cc21 (racemic) | 8.6 | 0.05 | 52 | Activity (Rattus norvegicus [3]): Active |
| CCCOCCn1c(=O)c(NCC(=O)N2CCCC2)nc2cnc(-c3ccc(OC)nc3)cc21 | 39.5 | 0.08 |  |  |
| CCCOCCn1c(=O)c(NCCOCC)nc2cnc(-c3ccc(OC)nc3)cc21 | 9.3 | 0.11 |  |  |
| CCCOCCn1c(=O)c(N[C@@H](C)CO)nc2cnc(-c3ccc(OC)nc3)cc21 | 17.9 | 0.24 |  |  |
| CCCOCCn1c(=O)c(NCCN(C)C)nc2cnc(-c3ccc(OC)nc3)cc21 | 261 | 0.78 |  |  |
| CCCOCCn1c(=O)c(NCC(=O)N2CCOCC2)nc2cnc(-c3ccc(OC)nc3)cc21 | 16.1 | 0.15 | 9.1 | Vd [6]: 1.2 L/kg; clearance [7]: 5.3 mL/min/kg; bioavailability [8]: 32%; bioavailability [9]: 35%; Vd [10]: 0.5 L/kg; half-life [11]: 3.9 h; half-life [12]: 0.8 h |
| CCCOCCn1c(=O)c(NCC(=O)N2CCN(CC)CC2)nc2cnc(-c3ccc(OC)nc3)cc21 | 55.9 | 0.13 | 28 | Vd [6]: 8 L/kg; clearance [7]: 37 mL/min/kg; bioavailability [8]: 15%; bioavailability [9]: 61%; Vd [10]: 2.3 L/kg; half-life [11]: 3.5 h; half-life [12]: 1.4 h |
| CCCOCCn1c(=O)c(NCC(=O)N2CCN(C)CC2)nc2cnc(-c3ccc(OC)nc3)cc21 | 14.7 | 0.07 |  |  |
| CCCOCCn1c(=O)c(NCC(=O)NC)nc2cnc(-c3ccc(OC)nc3)cc21 | 15.2 | 0.07 |  |  |
| CCCOCCn1c(=O)c(NC[C@H](C)O)nc2cnc(-c3ccc(OC)nc3)cc21 | 15.3 | 0.09 | 13.8 | Vd [6]: 4.3 L/kg; clearance [7]: 17.8 mL/min/kg; bioavailability [8]: 38%; bioavailability [9]: 42%; Vdu (Rattus norvegicus [13]): 35 L/kg; CL free (Rattus norvegicus [14]): 500 mL/min/kg; Vd [10]: 1 L/kg; half-life [11]: 4.1 h; half-life [12]: 1.3 h |
| CCCOCCn1c(=O)c(NCC(=O)N(C)C)nc2cnc(-c3ccc(OC)nc3)cc21 | 86.6 | 0.68 | 27 | Vd [6]: 0.4 L/kg; clearance [7]: 1.8 mL/min/kg; bioavailability [8]: 30%; bioavailability [9]: 52%; Activity (Rattus norvegicus [3]): Active; Vd [10]: 0.9 L/kg; half-life [11]: 4.3 h; half-life [12]: 0.6 h; Ratio IC50 [5]: 97 |
| CCCOCCn1c(=O)c(NCCNCCO)nc2cnc(-c3ccc(OC)nc3)cc21 | 272 | 1.1 | 170 | bioavailability [9]: 53%; Activity (Rattus norvegicus [3]): Active |
| CCCOCCn1c(=O)c(N[C@H](CC)CO)nc2cnc(-c3ccc(OC)nc3)cc21 | 23.2 | 0.25 | 22.6 | bioavailability [9]: 61%; Vd [10]: 2.4 L/kg; half-life [12]: 1.8 h |
| CCCOCCn1c(=O)c(NCCO)nc2cnc(-c3ccc(OC)nc3)cc21 | 26.3 | 0.9 |  | Activity (Rattus norvegicus [3]): inactive; Ratio IC50 [5]: 30 |
| CCCOCCn1c(=O)c(NCCN)nc2cnc(-c3ccc(OC)nc3)cc21 | 1210 | 0.25 |  |  |
| CCCOCCn1c(=O)c(NCCCO)nc2cnc(-c3ccc(OC)nc3)cc21 | 13.8 | 0.26 | 28 | bioavailability [9]: 52%; Vdu (Rattus norvegicus [13]): 31 L/kg; CL free (Rattus norvegicus [14]): 730 mL/min/kg; Vd [10]: 1.2 L/kg; half-life [12]: 0.7 h; Ratio IC50 [5]: 30 |
| CCCOCCn1c(=O)c(N[C@H]2CC[C@H](O)CC2)nc2ncc(-c3ccc(OC)nc3)cc21 | 15.3 | 0.32 |  |  |
| CCCOCCn1c(=O)c(NCc2cnccn2)nc2cnc(-c3ccc(OC)nc3)cc21 | 4.7 | 0.06 |  |  |
| CCCOCCn1c(=O)c(N[C@H](C)CO)nc2cnc(-c3ccc(OC)nc3)cc21 | 17.7 | 0.14 |  |  |
| CCCOCCn1c(=O)c(NC[C@@H](C)O)nc2cnc(-c3ccc(OC)nc3)cc21 | 15.1 | 0.1 |  |  |
| CCCOCCn1c(=O)c(NCC(=O)N2CCNCC2)nc2cnc(-c3ccc(OC)nc3)cc21 | 100 | 1.65 |  |  |
| CCCOCCn1c(=O)c(NCC(=O)N2CCC(O)CC2)nc2cnc(-c3ccc(OC)nc3)cc21 | 24.6 | 0.13 | 10.5 | bioavailability [9]: 52%; Vd [10]: 1 L/kg; half-life [12]: 1.7 h |
| CCCOCCn1c(=O)c(NCc2ccccn2)nc2cnc(-c3ccc(OC)nc3)cc21 | 10.8 | 0.04 | 21.9 | bioavailability [9]: 54%; Activity (Rattus norvegicus [3]): Active |
